Source: the supplement of paper PMC4862054

Columns and labels:
Settings in all cases: incubation time: 72 h
CAL-148 [1] = assay: normalised response (% of control), CellTox Green; higher = less cell death (100 = DMSO, 0 = benzethonium chloride kill control)
Outline: (§1)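 Compound was dispensed into 384-well plates at 5 concentrations in 10-fold steps spanning a 10,000-fold range specific to that compound. Breast cancer cell lines were added as 20 µl suspension and left for 72 h before CellTox Green fluorescence (485/520 nm) and then CellTiter-Glo luminescence, read after 10 min at room temperature. Each reported value is the normalised signal at one concentration, with 0.1 % DMSO set at 100 and a positive kill control at 0 on each plate.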

MCF-10A [2] = assay: as above
Outline: as §1

CAL-120 [3] = assay: as above
Outline: as §1

MDA-MB-453 [4] = assay: as above
Outline: as §1

CAL-51 [5] = assay: as above
Outline: as §1

BT-474 [6] = assay: as above
Outline: as §1

MFM-223 [7] = assay: as above
Outline: as §1

MDA-MB-468 [8] = assay: as above
Outline: as §1

HCC1937 [9] = assay: as above
Outline: as §1

HCC1143 [10] = assay: as above
Outline: as §1

Hs578T [11] = assay: as above
Outline: as §1

DU-4475 [12] = assay: as above
Outline: as §1

MDA-MB-231 [13] = assay: as above
Outline: as §1

CAL-85-1 [14] = assay: as above
Outline: as §1

HDQ-P1 [15] = assay: as above
Outline: as §1

HCC1599 [16] = assay: as above
Outline: as §1

MDA-MB-436 [17] = assay: as above
Outline: as §1

BT-549 [18] = assay: as above
Outline: as §1

CAL-148 [19] = assay: normalised response (% of control), CellTiter-Glo; higher = more viable cells (100 = DMSO, 0 = benzethonium chloride kill control)
Method: (§2)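 DSRT, 72 h incubation, CellTox Green / CellTiter-Glo readout. Signal is normalised to DMSO and benzethonium chloride controls. Value is the normalised response at the highest dose.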

MCF-10A [20] = assay: as above
Method: as §2

CAL-120 [21] = assay: as above
Method: as §2

MDA-MB-453 [22] = assay: as above
Method: as §2

CAL-51 [23] = assay: as above
Method: as §2

BT-474 [24] = assay: as above
Method: as §2

MFM-223 [25] = assay: as above
Method: as §2

MDA-MB-468 [26] = assay: as above
Method: as §2

HCC1937 [27] = assay: as above
Method: as §2

SK-BR-3 = assay: as above
Method: as §2

HCC1143 [28] = assay: as above
Method: as §2

Hs578T [29] = assay: as above
Method: as §2

DU-4475 [30] = assay: as above
Method: as §2

MDA-MB-231 [31] = assay: as above
Method: as §2

CAL-85-1 [32] = assay: as above
Method: as §2

HDQ-P1 [33] = assay: as above
Method: as §2

HCC1599 [34] = assay: as above
Method: as §2

MDA-MB-436 [35] = assay: as above
Method: as §2

BT-549 [36] = assay: as above
Method: as §2

Row | SMILES | normalised response (CAL-148 [1]) [%] | normalised response (MCF-10A [2]) [%] | normalised response (CAL-120 [3]) [%] | normalised response (MDA-MB-453 [4]) [%] | normalised response (CAL-51 [5]) [%] | normalised response (BT-474 [6]) [%] | normalised response (MFM-223 [7]) [%] | normalised response (MDA-MB-468 [8]) [%] | normalised response (HCC1937 [9]) [%] | normalised response (HCC1143 [10]) [%] | normalised response (Hs578T [11]) [%] | normalised response (DU-4475 [12]) [%] | normalised response (MDA-MB-231 [13]) [%] | normalised response (CAL-85-1 [14]) [%] | normalised response (HDQ-P1 [15]) [%] | normalised response (HCC1599 [16]) [%] | normalised response (MDA-MB-436 [17]) [%] | normalised response (BT-549 [18]) [%] | normalised response (CAL-148 [19]) [%] | normalised response (MCF-10A [20]) [%] | normalised response (CAL-120 [21]) [%] | normalised response (MDA-MB-453 [22]) [%] | normalised response (CAL-51 [23]) [%] | normalised response (BT-474 [24]) [%] | normalised response (MFM-223 [25]) [%] | normalised response (MDA-MB-468 [26]) [%] | normalised response (HCC1937 [27]) [%] | normalised response (SK-BR-3) [%] | normalised response (HCC1143 [28]) [%] | normalised response (Hs578T [29]) [%] | normalised response (DU-4475 [30]) [%] | normalised response (MDA-MB-231 [31]) [%] | normalised response (CAL-85-1 [32]) [%] | normalised response (HDQ-P1 [33]) [%] | normalised response (HCC1599 [34]) [%] | normalised response (MDA-MB-436 [35]) [%] | normalised response (BT-549 [36]) [%]
1 | CCCCC/C=C/C=C1/C(=O)C=C[C@@H]1C/C=C\CCCC(=O)O [15D-PGJ2] (800 nM) | 102 | 95.6 | 109 | 72.9 | 104 | 106 | 106 | 119 | 110 | 110 | 124 | 94.9 | 104 | 94.3 | 82.9 | 108 | 107 | 105 | 108 | 108 | 101 | 106 | 71.8 | 95.4 | 102 | 88.7 | 102 | 106 | 107 | 102 | 100 | 97.8 | 101 | 97.1 | 97 | 97.4 | 96.5
2 | CC(=O)OC[C@H]1O[C@@H]([S-])[C@H](OC(C)=O)[C@@H](OC(C)=O)[C@@H]1OC(C)=O.CCP(CC)CC.[Au+] [Auranofin] (2500 nM) | 60.1 | 76.2 | 68.4 | 28.8 | 71 | 48.5 | 56.2 | -35.6 | 1.35 | 73.2 | 79.6 | 91 | 13.3 | -5.72 | -37 | 96.3 | 84.1 | -11.2 | 41.8 | 37.9 | 49.8 | 1.5 | 9.42 | 47.9 | 21.9 | 0.33 | 1.72 | 34.3 | 31.8 | 19.1 | 32.6 | 8.02 | 4.51 | 11.1 | 39.1 | 22.4 | 0.2
3 | O=C(NC[C@H](O)CO)c1ccncc1Nc1ccc(I)cc1F [Pimasertib] (10000 nM) | 99.6 | 95.4 | 72.1 | 112 | 93.8 | 88.3 | 64.9 | 169 | 91 | 124 | 105 | 72.9 | 70.1 | 51.5 | 81.8 | 105 | 100 | 125 | 71.6 | 26.6 | 65.4 | 89.2 | 90.2 | 53 | 63 | 53.5 | 68.1 | 58.6 | 79.1 | 64.6 | 0.07 | 54 | 40.8 | 55.1 | 89.8 | 79.7 | 84.2
4 | c1cc(CN2CCCNCCNCCCNCC2)ccc1CN1CCCNCCNCCCNCC1 [Plerixafor] (10000 nM) | 98.5 | 94.2 | 95.2 | 80.5 | 85.7 | 99.7 | 96.9 | 69.7 | 104 | 101 | 102 | 92.3 | 96 | 117 | 104 | 98.2 | 95.5 | 52.3 | 91.8 | 82.6 | 108 | 78.3 | 124 | 90.9 | 87.2 | 106 | 97.3 | 79.1 | 102 | 92.3 | 88.6 | 94.2 | 96 | 98.2 | 99.8 | 97.9 | 107
5 | Cn1cc(CNCC2CCN(c3ncc(C(=O)NO)cn3)CC2)c2ccccc21 [Quisinostat] (1000 nM) | -22.9 | 56.8 | -15.2 | 87.9 | -21.8 | 35.7 | 66.2 | 31.9 | 82 | 57.9 | 9.9 | 77.2 | -24.8 | -55.4 | 52.1 | 71.7 | 91.8 | 64.2 | 0.34 | 10.7 | 10.8 | 2.11 | 7.13 | 6.87 | 32.8 | 10.2 | 22.7 | 0.06 | 13.9 | 5.64 | 15.9 | 6.24 | 4.67 | 25.7 | 6.82 | 34.8 | 10.2
6 | CC[C@@]1(O)C(=O)OCc2c1cc1n(c2=O)Cc2cc3c(CN(C)C)c(O)ccc3nc2-1 [Topotecan] (10000 nM) | 7.1 | 55.5 | 49.3 | 85.1 | -18.1 | 88.4 | 43.5 | 29.5 | 18.6 | 87.9 | 102 | 60.8 | 46.1 | 42.3 | 69.8 | 71.7 | 29.1 | 56.9 | 0.39 | 39 | 37 | 33.2 | 15.2 | 47.8 | 61.7 | 4.47 | 15.3 | 19.6 | 26.9 | 55.2 | 0.66 | 43.1 | 21.6 | 54.5 | 9.36 | 21 | 22.1
